Measurements from paper PMC11684029, “Discovery of VU6024578/BI02982816: An mGlu1 Positive Allosteric Modulator with Efficacy in Preclinical Antipsychotic and Cognition Models” (Journal of Medicinal Chemistry, 2024).
Several values for one entry are separate records, joined by “and”; a condition that tells them apart may be missing. Identical values can stand only once. Entries after “also recorded” stand apart in the source; their conditions may differ. Like-named read-outs stand apart in the source and are kept apart here.

Tests used:
IV dog PK = type: in vivo; settings: 0.5 mg/kg IV; for C0: plasma
Description: Deeper profiling began with IV dog PK (0.5 mg/kg, n = 3 male beagles). […] Was this a mechanism-based toxicity in dog? Could there be dog-specific pharmacology of mGlu1 activation? Were these AEs derived from the 19d chemotype? Could a mGlu1/mGlu5 heterodimer be responsible for the observed AEs? […] In an attempt to address the chemotype question, we evaluated PAM 4 (VU6004909),[8] an early generation rodent in vivo tool compound, for the first time in dog PK. […] of the study with 19d, PAM 4 produced no AEs in dog. […] Therefore, more molecular pharmacology and PK studies as well as additional chemically distinct mGlu1 PAM chemotypes are required to understand the AEs elicited by an mGlu1 PAM in dogs, an otherwise very promising target for the treatment of schizophrenia.

rat mGlu2–5,7,8 = assay: mGlu subtype selectivity; type: cell-based; settings: inactive
Description: (§1) Over the course of the mGlu1 PAM program, 19d became an assay standard and was assayed multiple times, affording refined potency values.[20]

human mGlu2–5,7,8 = assay: mGlu subtype selectivity; type: cell-based
Description: as §1

[1] = satellite PK for mouse AHL; type: in vivo
Source text: In parallel with the rat AHL study, we carried out a mouse AHL study to determine if the PK/PD relationship would remain intact across rodent species.

hERG = hERG (Homo sapiens, UniProt Q12809); assay: hERG manual patch clamp assay; type: cell-based
Chain of hERG (Q12809 whole entry): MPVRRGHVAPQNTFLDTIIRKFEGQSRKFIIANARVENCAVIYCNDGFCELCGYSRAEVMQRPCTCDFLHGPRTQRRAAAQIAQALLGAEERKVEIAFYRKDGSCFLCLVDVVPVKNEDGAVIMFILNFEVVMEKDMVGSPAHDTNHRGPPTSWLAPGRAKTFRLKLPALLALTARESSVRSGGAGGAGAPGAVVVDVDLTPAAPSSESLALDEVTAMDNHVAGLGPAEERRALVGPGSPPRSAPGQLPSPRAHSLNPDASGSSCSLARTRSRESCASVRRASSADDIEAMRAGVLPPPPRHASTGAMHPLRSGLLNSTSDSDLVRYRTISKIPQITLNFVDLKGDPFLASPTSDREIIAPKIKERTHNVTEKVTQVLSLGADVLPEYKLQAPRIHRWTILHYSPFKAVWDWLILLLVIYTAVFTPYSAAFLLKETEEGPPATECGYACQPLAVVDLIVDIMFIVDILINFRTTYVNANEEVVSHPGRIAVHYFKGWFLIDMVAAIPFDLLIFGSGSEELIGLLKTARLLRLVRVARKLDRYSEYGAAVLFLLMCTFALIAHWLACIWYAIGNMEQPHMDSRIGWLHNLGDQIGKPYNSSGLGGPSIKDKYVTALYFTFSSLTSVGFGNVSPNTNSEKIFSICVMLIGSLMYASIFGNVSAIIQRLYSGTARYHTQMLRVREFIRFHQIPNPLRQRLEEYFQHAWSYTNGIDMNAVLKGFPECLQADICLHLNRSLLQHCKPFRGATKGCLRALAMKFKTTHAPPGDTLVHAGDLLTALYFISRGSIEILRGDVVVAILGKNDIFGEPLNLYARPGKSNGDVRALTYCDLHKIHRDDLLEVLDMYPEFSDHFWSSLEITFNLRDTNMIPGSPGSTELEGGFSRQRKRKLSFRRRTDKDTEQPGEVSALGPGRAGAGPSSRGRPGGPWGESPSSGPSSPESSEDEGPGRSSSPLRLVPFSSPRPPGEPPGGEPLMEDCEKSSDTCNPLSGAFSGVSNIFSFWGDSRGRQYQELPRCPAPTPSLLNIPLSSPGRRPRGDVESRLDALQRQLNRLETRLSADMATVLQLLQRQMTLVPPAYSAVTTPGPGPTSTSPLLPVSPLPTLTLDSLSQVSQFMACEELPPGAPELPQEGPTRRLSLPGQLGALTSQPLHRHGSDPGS

rats = assay: rat AHL Cmax versus Ctrough study; type: in vivo
Description: Based on these positive behavioral data and the clear PK/PD relationship tied to achieving free brain levels at, or above, the mGlu1 PAM EC50, we next wanted to define the role of Cmax versus Ctrough drug (19d) concentrations in driving the PK/PD relationship. To accomplish this, pretreatment times and doses were calculated based upon previous PK (see Supporting Information Figure S3)[20] data to target free brain concentrations at and below the in vitro EC50 at the time of amphetamine challenge. Rats were pretreated with 3 mg/kg 19d or vehicle after habituation to the locomotor chambers are described in Figure 9A. Rats pretreated with 19d (10–60 mg/kg) or vehicle were administered compound prior to starting the amphetamine-induced hyperlocomotion experiment as depicted in Figure 9B-D. Ambulations were evaluated for 90 min post amphetamine treatment for all dosing groups. Pretreatment of 19d, chamber habituation, amphetamine treatment and ambulation recording times are outlined for each dosing group in Figure 9. Blood and brain samples were obtained at the end of testing (EOT) to determine 19d levels at the end of the study (Table 6).
The terminal free brain concentrations for this dosing group were 40 nM.
Figure 10 Amphetamine-induced hyperlocomotion in rats. A) 1 h pretreatment of 3 mg/kg 19d. B) 5 h pretreatment of 10 mg/kg 19d. C) 28.5 h pretreatment of 60 mg/kg 19d. Total ambulation from 95 to 180 min. *p < 0.05 compared to Vehicle + Amphetamine treated animals. TEXT PRINTED IN THE PICTURE: (A) 19d: Mean % reversal 27.3% * (3 mg/kg 19d + AMP) | (B) 19d: Mean % reversal 25.1% * (10 mg/kg 19d + AMP) | (C) 19d: Mean % reversal 7.3% (60 mg/kg 19d + AMP) DOUBTS OF THE COPYIST ABOUT THIS PICTURE: 19d, panel A, Mean % reversal: small print, 27.3% could be 27.8% / 19d, panel B, Mean % reversal: small print, 25.1% could be 26.1% / 19d, panel C, Mean % reversal: small print, 7.3% could be 7.8%

dog mGlu1 = dog mGlu1 (Canis lupus familiaris, UniProt A0A8I3NTE8); assay: mGlu1 PAM assay, dog receptor; type: cell-based; settings: read-out: dog mGlu1 Glumax
Chain of dog mGlu1 (A0A8I3NTE8 30-1195): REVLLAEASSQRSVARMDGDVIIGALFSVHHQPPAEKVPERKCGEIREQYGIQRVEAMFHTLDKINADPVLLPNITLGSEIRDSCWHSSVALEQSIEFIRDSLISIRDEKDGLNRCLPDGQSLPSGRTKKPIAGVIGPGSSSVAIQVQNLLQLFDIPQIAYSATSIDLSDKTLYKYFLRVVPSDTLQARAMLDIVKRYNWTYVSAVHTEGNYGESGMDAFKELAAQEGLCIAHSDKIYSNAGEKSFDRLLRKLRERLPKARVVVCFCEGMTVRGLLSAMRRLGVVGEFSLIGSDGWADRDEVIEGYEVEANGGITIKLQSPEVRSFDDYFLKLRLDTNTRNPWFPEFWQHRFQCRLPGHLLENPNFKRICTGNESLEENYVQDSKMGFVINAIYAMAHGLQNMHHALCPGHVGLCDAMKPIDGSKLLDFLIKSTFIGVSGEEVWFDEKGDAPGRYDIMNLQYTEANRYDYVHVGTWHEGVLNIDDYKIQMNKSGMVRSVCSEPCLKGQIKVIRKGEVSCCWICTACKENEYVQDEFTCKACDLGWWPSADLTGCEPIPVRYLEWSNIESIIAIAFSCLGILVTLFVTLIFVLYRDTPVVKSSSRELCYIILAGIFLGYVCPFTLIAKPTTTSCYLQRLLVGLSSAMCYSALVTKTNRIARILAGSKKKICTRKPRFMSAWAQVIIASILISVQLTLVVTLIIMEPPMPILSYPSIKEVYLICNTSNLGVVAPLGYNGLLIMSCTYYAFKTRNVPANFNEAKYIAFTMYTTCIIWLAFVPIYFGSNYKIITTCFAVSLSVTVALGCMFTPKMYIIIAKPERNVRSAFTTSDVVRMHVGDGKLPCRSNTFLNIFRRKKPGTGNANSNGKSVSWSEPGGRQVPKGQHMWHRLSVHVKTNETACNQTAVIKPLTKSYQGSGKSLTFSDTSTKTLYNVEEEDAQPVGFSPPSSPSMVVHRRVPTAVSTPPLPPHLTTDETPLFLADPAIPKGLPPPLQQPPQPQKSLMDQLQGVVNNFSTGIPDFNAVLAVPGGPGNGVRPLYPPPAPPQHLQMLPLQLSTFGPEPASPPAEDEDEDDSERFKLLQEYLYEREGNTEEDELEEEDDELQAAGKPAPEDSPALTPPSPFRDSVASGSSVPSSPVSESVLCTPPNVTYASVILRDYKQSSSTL

mGlu1 = mGlu1 (Mus musculus, UniProt P97772); assay: mGlu1 PAM assay, mouse receptor; type: cell-based; settings: n = 5
Chain of mGlu1 (P97772 21-1199): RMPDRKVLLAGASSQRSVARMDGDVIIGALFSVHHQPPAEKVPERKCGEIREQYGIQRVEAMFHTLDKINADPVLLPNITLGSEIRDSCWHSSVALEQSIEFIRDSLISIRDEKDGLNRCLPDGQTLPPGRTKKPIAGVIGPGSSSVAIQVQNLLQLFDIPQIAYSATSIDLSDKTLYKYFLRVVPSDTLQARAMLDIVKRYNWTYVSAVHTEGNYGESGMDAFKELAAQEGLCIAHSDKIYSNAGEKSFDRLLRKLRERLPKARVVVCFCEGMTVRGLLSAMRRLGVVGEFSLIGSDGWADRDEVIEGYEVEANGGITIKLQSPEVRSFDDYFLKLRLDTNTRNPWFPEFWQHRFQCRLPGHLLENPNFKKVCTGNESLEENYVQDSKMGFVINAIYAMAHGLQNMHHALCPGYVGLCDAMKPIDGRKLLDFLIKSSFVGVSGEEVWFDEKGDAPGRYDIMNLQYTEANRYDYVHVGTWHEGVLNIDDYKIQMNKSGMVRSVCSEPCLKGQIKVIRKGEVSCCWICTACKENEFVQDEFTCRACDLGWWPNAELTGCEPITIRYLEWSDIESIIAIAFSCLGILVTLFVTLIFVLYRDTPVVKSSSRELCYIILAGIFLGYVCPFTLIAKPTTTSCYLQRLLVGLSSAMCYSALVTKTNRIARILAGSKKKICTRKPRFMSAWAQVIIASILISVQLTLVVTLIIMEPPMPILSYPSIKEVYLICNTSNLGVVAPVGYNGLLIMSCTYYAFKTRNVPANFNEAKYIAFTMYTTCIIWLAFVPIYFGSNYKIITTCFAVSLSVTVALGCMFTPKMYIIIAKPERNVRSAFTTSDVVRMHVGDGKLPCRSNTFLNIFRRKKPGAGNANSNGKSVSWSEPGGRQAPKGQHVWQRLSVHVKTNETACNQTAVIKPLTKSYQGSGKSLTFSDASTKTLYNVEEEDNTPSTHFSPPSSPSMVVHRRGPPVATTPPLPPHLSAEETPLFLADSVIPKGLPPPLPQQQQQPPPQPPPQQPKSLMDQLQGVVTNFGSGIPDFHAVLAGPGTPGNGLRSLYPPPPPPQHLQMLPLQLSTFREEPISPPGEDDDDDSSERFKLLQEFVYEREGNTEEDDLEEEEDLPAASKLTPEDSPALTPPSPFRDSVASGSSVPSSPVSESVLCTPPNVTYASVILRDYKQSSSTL
Description: as §1

Sprague–Dawley rats = assay: catalepsy (latency to withdraw); type: in vivo; settings: rat, doses up to 10 mg/kg p.o., 100 min postdose
Description: In order to enable our target validation work, we first profiled PAM 19d in a rat locomotor battery to ensure that pharmacodynamic efficacy was not mistaken for gross effects on locomotion.[20] […] PK was performed in parallel to establish a PK/PD relationship.[24]
Control rats were injected with 1.5 mg/kg of haloperidol i.p. (dissolved in 8% lactic acid and taken to volume of 50 mL with sterile water) and were returned to their home cage for 90 min. Cataleptic behavior is determined by placing the forelimbs on a bar raised 6 cm above the table and recording the amount of time it takes for the rat to withdraw the forelimbs with a cutoff of 60 s. Data are expressed as mean latency to withdraw + SEM or percent inhibition of catalepsy + SEM.

[2] = intrinsic clearance, predicted hepatic clearance; type: in vitro ADME, human; settings: in vitro predicted hepatic clearance
Description: (§2) Human or rat hepatic microsomes (0.5 mg/mL) and 1 μM test compound were incubated in 100 mM potassium phosphate pH 7.4 buffer with 3 mM MgCl2 at 37 °C with constant shaking. After a 5 min preincubation, the reaction was initiated by addition of NADPH (1 mM). At selected time intervals (0, 3, 7, 15, 25, and 45 min), aliquots were taken and subsequently placed into a 96-well plate containing cold acetonitrile with internal standard (50 ng/mL carbamazepine). Plates were then centrifuged at 3000 rcf (4 °C) for 10 min, and the supernatant was transferred to a separate 96-well plate and diluted 1:1 with water for LC/MS/MS analysis. The in vitro half-life (T1/2, min, eq 1), intrinsic clearance (CLint, mL/min/kg, eq 2) and subsequent predicted hepatic clearance (CLhep, mL/min/kg, eq 3) was determined employing the following equations: [drawing 2] 1 where k represents the slope from linear regression analysis of the natural log percent remaining of test compound as a function of incubation time [drawing 3] 2
(§3) ^ascale-up factors: of 20 (human) or 45 (rat) [drawing 4] 3 where Qh (hepatic blood flow, mL/min/kg) is 21 (human) or 70 (rat).

[3] = intrinsic clearance, predicted hepatic clearance; type: in vitro ADME, rat; settings: in vitro predicted hepatic clearance
Description: as §2, §3

## Cn1nc(-c2ccnn2C)cc1CNC(=O)c1cc(-c2ccco2)ccc1Cl [Compound 19d, 2-Chloro-N-((1,2′-dimethyl-1H,2’H-[3,3′-bipyrazol]-5-yl)methyl)-5-(furan-2-yl)benzamide]
IV dog PK
  CLp: 5.4 mL/min/kg
  Vss: 0.92 L/kg
  t1/2: 3.6 h
IV dog PK; read-out: C0 exposure, total
  C0: 2050 nM
IV dog PK; male, beagle, iv, 0.5 mg/kg, read-out: C0 exposure, unbound
  C0: 80 nM
Rat mGlu2–5,7,8
  activity against rat mGlu2–5,7,8: > 30 µM
Human mGlu2–5,7,8; inactive
  activity against human mGlu2–5,7,8: > 30 µM
Human mGlu2–5,7,8; species not given
  activity on mGlu2–5,7,8, in words: inactive
[1]; 10 mg/kg
  free brain concentration: 36 nM
  free brain concentration over the EC50: 1.3 fold
[1]; 30 mg/kg
  free brain concentration: 67 nM
  free brain concentration over the EC50: 2.5 fold
hERG
  IC50: > 10000 nM
rats; 3 mg/kg, 1 h prior to amphetamine
  effect on AHL, in words: significantly reduced
rats; 10 mg/kg, 5 h before amphetamine
  effect on AHL, in words: significantly reduced
rats; 60 mg/kg, 28.5 h before amphetamine
  reduction of locomotor activity after amphetamine, in words: not demonstrated
Dog mGlu1
  Emax: 129%
mGlu1
  EC50: 27 nM
  mouse mGlu1 Glumax: 89%
  mouse mGlu1 pEC50: 7.59 ± 0.07
Sprague–Dawley rats
  catalepsy: lack of effect; also recorded: without effect
[2]
  CLhep, human: 16 mL/min/kg and 15.8 mL/min/kg
[3]
  CLhep, rat: 39 mL/min/kg and 39.3 mL/min/kg
